Results as given in article PMC7028757 (2020).

How the values were obtained:
[1] = system: Oxytricha Nova G-quadruplex d(GGGGTTTTGGGG) (DNA, G4) GGGGTTTTGGGG; assay: FID; settings: 100 mM NaCl; 10 mM sodium cacodylate, 0.5 mM EDTA, pH 7.0, 20°C; thiazole orange 0.50 μM displaced
[2] = system: d(AGGGGTTTTCCCCT) hairpin duplex (DNA, hairpin) AGGGGTTTTCCCCT; assay: FID; settings: 100 mM NaCl; 10 mM sodium cacodylate, 0.5 mM EDTA, pH 7.0, 20°C; thiazole orange 0.50 μM displaced
[3] = system: Oxytricha Nova G-quadruplex d(GGGGTTTTGGGG) (DNA, G4) GGGGTTTTGGGG; assay: UV melting, 260 nm; settings: 100 mM NaCl; 10 mM sodium cacodylate, 0.5 mM EDTA, pH 7.0; 5 μM quadruplex, ligand 1:1
[4] = system: Oxytricha Nova G-quadruplex d(GGGGTTTTGGGG) (DNA, G4) GGGGTTTTGGGG; assay: fluorescence titration; settings: 100 mM NaCl; 10 mM sodium cacodylate, 0.5 mM EDTA, pH 7.0, 20°C

| DC50 [1] [µM] | DC50 [2] [µM] | ΔTm [3] [°C] | binding [4] | Compound |
| --- | --- | --- | --- | --- |
| 7.89 | 0.83 | 0.6 |  | CN(C)CCN1C(=O)c2ccc3c4c(ccc(c24)C1=O)C(=O)N(CCCNC(=O)NCCSC[C@H]1O[C@@H](O[C@@H]2[C@@H](O)[C@H](N)C[C@H](N)[C@H]2O[C@H]2O[C@H](CN)[C@@H](O)[C@H](O)[C@H]2N)[C@H](O)[C@@H]1O[C@H]1O[C@@H](CN)[C@@H](O)[C@H](O)[C@H]1N)C3=O |
| 0.30 | 0.75 | 0.5 |  | NC[C@@H]1O[C@H](O[C@H]2[C@@H](O)[C@H](O[C@@H]3[C@@H](O)[C@H](N)C[C@H](N)[C@H]3O[C@H]3O[C@H](CN)[C@@H](O)[C@H](O)[C@H]3N)O[C@@H]2CSCCNC(=O)NCCCNC(=O)c2ccc3c(c2)C(=O)c2ccccc2C3=O)[C@H](N)[C@@H](O)[C@@H]1O |

Continued, molecule first:

| Compound | DC50 [1] [µM] | DC50 [2] [µM] | ΔTm [3] [°C] | binding [4] |
| --- | --- | --- | --- | --- |
| CN1C(=Cc2cc[n+](C)c3ccccc23)Sc2ccccc21 |  |  |  | yes |
| NC[C@@H]1O[C@H](O[C@H]2[C@@H](O)[C@H](O[C@@H]3[C@@H](O)[C@H](N)C[C@H](N)[C@H]3O[C@H]3O[C@H](CN)[C@@H](O)[C@H](O)[C@H]3N)O[C@@H]2CO)[C@H](N)[C@@H](O)[C@@H]1O | 76.02 | 53.44 | 0.0 |  |
| NC[C@@H]1O[C@H](O[C@H]2[C@@H](O)[C@H](O[C@@H]3[C@@H](O)[C@H](N)C[C@H](N)[C@H]3O[C@H]3O[C@H](CN)[C@@H](O)[C@H](O)[C@H]3N)O[C@@H]2CSCCNC(=O)CCCc2ccc3ccc4cccc5ccc2c3c45)[C@H](N)[C@@H](O)[C@@H]1O | 4.73 | 2.61 | 1.9 |  |
